Reference: PubChem BioAssay AID2060486 (Molecular Pharmacology Branch, DTP, NCI, 2025)

Test system: IGROV1 complex spheroids (HUVEC, MSC), viability % test/control
Assay: Anticancer human tumor IGROV1 cell line growth inhibition [GQUAD];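 further: spheroids exposed to compounds for 7 days before readout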;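 on viability, T/C: 100% = DMSO vehicle control viability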
Conditions: for IC50: curve of first compound; for viability, T/C: stronger effect = lower value
Summary of the method: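 Viability of tumor cells grown as complex spheroids with endothelial and stromal cells, exposed to drug combinations. Top concentration at or near clinical Cmax (else 10 microM), diluted in half-log increments.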

[1] = second compound 0.0316 µM, first compound 0.0316 µM
[2] = second compound 0.0316 µM, first compound 0.1 µM
[3] = second compound 0.0316 µM, first compound 0.316 µM
[4] = second compound 0.0316 µM, first compound 1 µM
[5] = second compound 0.0316 µM, first compound 3.16 µM
[6] = second compound 0.0316 µM, first compound 10 µM
[7] = second compound 0.1 µM, first compound 0.0316 µM
[8] = second compound 0.1 µM, first compound 0.1 µM
[9] = second compound 0.1 µM, first compound 0.316 µM
[10] = second compound 0.1 µM, first compound 1 µM
[11] = second compound 0.1 µM, first compound 3.16 µM
[12] = second compound 0.1 µM, first compound 10 µM
[13] = second compound 0.316 µM, first compound 0.0316 µM
[14] = second compound 0.316 µM, first compound 0.1 µM
[15] = second compound 0.316 µM, first compound 0.316 µM
[16] = second compound 0.316 µM, first compound 1 µM
[17] = second compound 0.316 µM, first compound 3.16 µM
[18] = second compound 0.316 µM, first compound 10 µM
[19] = second compound 1 µM, first compound 0.0316 µM
[20] = second compound 1 µM, first compound 0.1 µM
[21] = second compound 1 µM, first compound 0.316 µM
[22] = second compound 1 µM, first compound 1 µM
[23] = second compound 1 µM, first compound 3.16 µM
[24] = second compound 1 µM, first compound 10 µM
[25] = second compound 3.16 µM, first compound 0.0316 µM
[26] = second compound 3.16 µM, first compound 0.1 µM
[27] = second compound 3.16 µM, first compound 0.316 µM
[28] = second compound 3.16 µM, first compound 1 µM
[29] = second compound 3.16 µM, first compound 3.16 µM
[30] = second compound 3.16 µM, first compound 10 µM
[31] = second compound 10 µM, first compound 0.0316 µM
[32] = second compound 10 µM, first compound 0.1 µM
[33] = second compound 10 µM, first compound 0.316 µM
[34] = second compound 10 µM, first compound 1 µM
[35] = second compound 10 µM, first compound 3.16 µM
[36] = second compound 10 µM, first compound 10 µM

Compound: C=CCn1c(=O)c2cnc(Nc3ccc(N4CCN(C)CC4)cc3)nc2n1-c1cccc(C(C)(C)O)n1 + Cc1cnc(CNC(=O)c2c(=O)c3ccc(N4CCCN(C)CC4)nc3n3c2sc2ccccc23)cn1
- IC50 (second compound 0.0316 µM): 45.1 nM
- IC50 (second compound 0.1 µM): < 31.6 nM
- IC50 (second compound 0.316 µM): < 31.6 nM
- IC50 (second compound 1 µM): < 31.6 nM
- IC50 (second compound 3.16 µM): < 31.6 nM
- IC50 (second compound 10 µM): < 31.6 nM
- viability, T/C [1]: 59%
- viability, T/C [2]: 29.8%
- viability, T/C [3]: 5.19%
- viability, T/C [4]: 2.29%
- viability, T/C [5]: 2.42%
- viability, T/C [6]: 1.97%
- viability, T/C [7]: 23.5%
- viability, T/C [8]: 18%
- viability, T/C [9]: 4.3%
- viability, T/C [10]: 2.46%
- viability, T/C [11]: 2.38%
- viability, T/C [12]: 2.57%
- viability, T/C [13]: 16.9%
- viability, T/C [14]: 9.27%
- viability, T/C [15]: 4.48%
- viability, T/C [16]: 2.42%
- viability, T/C [17]: 2.95%
- viability, T/C [18]: 2.48%
- viability, T/C [19]: 9.95%
- viability, T/C [20]: 9.65%
- viability, T/C [21]: 3.88%
- viability, T/C [22]: 3.14%
- viability, T/C [23]: 3.18%
- viability, T/C [24]: 3.24%
- viability, T/C [25]: 11.6%
- viability, T/C [26]: 7.96%
- viability, T/C [27]: 4.12%
- viability, T/C [28]: 3.52%
- viability, T/C [29]: 3.96%
- viability, T/C [30]: 3.47%
- viability, T/C [31]: 7.24%
- viability, T/C [32]: 6.29%
- viability, T/C [33]: 4.68%
- viability, T/C [34]: 3.1%
- viability, T/C [35]: 4.62%
- viability, T/C [36]: 2.93%

Compound: COc1ncnc(C2CC2)c1-c1ncc2cnn(Cc3ccc(-c4nc(C(F)(F)F)cn4C(C)C)cc3)c2n1 + Cc1cnc(CNC(=O)c2c(=O)c3ccc(N4CCCN(C)CC4)nc3n3c2sc2ccccc23)cn1
- IC50 (second compound 0.0316 µM): 2110 nM
- IC50 (second compound 0.1 µM): < 31.6 nM
- IC50 (second compound 0.316 µM): < 31.6 nM
- IC50 (second compound 1 µM): < 31.6 nM
- IC50 (second compound 3.16 µM): < 31.6 nM
- IC50 (second compound 10 µM): < 31.6 nM
- viability, T/C [1]: 53.6%
- viability, T/C [2]: 55.4%
- viability, T/C [3]: 53%
- viability, T/C [4]: 57.7%
- viability, T/C [5]: 42.7%
- viability, T/C [6]: 46.5%
- viability, T/C [7]: 37.1%
- viability, T/C [8]: 39.4%
- viability, T/C [9]: 33%
- viability, T/C [10]: 28.5%
- viability, T/C [11]: 35.5%
- viability, T/C [12]: 34.1%
- viability, T/C [13]: 20.6%
- viability, T/C [14]: 25.6%
- viability, T/C [15]: 26.9%
- viability, T/C [16]: 21.4%
- viability, T/C [17]: 21.7%
- viability, T/C [18]: 20.8%
- viability, T/C [19]: 15.2%
- viability, T/C [20]: 13.8%
- viability, T/C [21]: 11.1%
- viability, T/C [22]: 14.3%
- viability, T/C [23]: 15.8%
- viability, T/C [24]: 12.4%
- viability, T/C [25]: 10.6%
- viability, T/C [26]: 8.57%
- viability, T/C [27]: 9.08%
- viability, T/C [28]: 9.63%
- viability, T/C [29]: 9.64%
- viability, T/C [30]: 8.03%
- viability, T/C [31]: 9.86%
- viability, T/C [32]: 9.33%
- viability, T/C [33]: 8.36%
- viability, T/C [34]: 8.88%
- viability, T/C [35]: 10.2%
- viability, T/C [36]: 7.78%
